Results as given in patent US8134007B2, “Pyridine derivatives” (Pfizer Inc., priority 2007, dated 2012).
Read-outs that look alike come from different tables or passages of the source.

Columns and labels:
Assay type in all cases: cell-based
[1] = molecular target: T1, Human Nav1.8 (Homo sapiens, UniProt Q9Y5Y9); assay: VIPR Assay for Nav1.8 Compounds (FRET membrane potential, deltamethrin opener); settings: VIPR FRET membrane potential assay, deltamethrin opener; average of replicates; read-out: Nav1.8 IC50
T1 construct: expressed in transfected cells; host or cells: HEK293

[2] = test system: tetrodotoxin-sensitive voltage-gated sodium channels including NaV1.2, NaV1.3 and NaV1.7; assay: TTX-S Assay (VIPR, SHSY-5Y cell line, veratridine opener)
[3] = molecular target: T2, Human Nav1.5 (Homo sapiens, UniProt Q14524); assay: Nav1.5 Assay (VIPR, HEK293 cells); settings: HEK293 cells expressing Human Nav1.5; average of replicates; read-out: Nav1.5 IC50
T2 construct: expressed in transfected cells; host or cells: HEK293
Procedure: The Nav1.5 assay is performed in HEK293 cells expressing Human Nav1.5 in the same way as the Nav1.8 assay.
Where replicate experiments were conducted resulting in multiple sets of data for a test compound, the data presented represent the average value from all replicate experiments.

[4] = read-out: TTX-S IC50, veratridine 50 μM opener, average of replicates

T1 sequence (Q9Y5Y9 whole entry): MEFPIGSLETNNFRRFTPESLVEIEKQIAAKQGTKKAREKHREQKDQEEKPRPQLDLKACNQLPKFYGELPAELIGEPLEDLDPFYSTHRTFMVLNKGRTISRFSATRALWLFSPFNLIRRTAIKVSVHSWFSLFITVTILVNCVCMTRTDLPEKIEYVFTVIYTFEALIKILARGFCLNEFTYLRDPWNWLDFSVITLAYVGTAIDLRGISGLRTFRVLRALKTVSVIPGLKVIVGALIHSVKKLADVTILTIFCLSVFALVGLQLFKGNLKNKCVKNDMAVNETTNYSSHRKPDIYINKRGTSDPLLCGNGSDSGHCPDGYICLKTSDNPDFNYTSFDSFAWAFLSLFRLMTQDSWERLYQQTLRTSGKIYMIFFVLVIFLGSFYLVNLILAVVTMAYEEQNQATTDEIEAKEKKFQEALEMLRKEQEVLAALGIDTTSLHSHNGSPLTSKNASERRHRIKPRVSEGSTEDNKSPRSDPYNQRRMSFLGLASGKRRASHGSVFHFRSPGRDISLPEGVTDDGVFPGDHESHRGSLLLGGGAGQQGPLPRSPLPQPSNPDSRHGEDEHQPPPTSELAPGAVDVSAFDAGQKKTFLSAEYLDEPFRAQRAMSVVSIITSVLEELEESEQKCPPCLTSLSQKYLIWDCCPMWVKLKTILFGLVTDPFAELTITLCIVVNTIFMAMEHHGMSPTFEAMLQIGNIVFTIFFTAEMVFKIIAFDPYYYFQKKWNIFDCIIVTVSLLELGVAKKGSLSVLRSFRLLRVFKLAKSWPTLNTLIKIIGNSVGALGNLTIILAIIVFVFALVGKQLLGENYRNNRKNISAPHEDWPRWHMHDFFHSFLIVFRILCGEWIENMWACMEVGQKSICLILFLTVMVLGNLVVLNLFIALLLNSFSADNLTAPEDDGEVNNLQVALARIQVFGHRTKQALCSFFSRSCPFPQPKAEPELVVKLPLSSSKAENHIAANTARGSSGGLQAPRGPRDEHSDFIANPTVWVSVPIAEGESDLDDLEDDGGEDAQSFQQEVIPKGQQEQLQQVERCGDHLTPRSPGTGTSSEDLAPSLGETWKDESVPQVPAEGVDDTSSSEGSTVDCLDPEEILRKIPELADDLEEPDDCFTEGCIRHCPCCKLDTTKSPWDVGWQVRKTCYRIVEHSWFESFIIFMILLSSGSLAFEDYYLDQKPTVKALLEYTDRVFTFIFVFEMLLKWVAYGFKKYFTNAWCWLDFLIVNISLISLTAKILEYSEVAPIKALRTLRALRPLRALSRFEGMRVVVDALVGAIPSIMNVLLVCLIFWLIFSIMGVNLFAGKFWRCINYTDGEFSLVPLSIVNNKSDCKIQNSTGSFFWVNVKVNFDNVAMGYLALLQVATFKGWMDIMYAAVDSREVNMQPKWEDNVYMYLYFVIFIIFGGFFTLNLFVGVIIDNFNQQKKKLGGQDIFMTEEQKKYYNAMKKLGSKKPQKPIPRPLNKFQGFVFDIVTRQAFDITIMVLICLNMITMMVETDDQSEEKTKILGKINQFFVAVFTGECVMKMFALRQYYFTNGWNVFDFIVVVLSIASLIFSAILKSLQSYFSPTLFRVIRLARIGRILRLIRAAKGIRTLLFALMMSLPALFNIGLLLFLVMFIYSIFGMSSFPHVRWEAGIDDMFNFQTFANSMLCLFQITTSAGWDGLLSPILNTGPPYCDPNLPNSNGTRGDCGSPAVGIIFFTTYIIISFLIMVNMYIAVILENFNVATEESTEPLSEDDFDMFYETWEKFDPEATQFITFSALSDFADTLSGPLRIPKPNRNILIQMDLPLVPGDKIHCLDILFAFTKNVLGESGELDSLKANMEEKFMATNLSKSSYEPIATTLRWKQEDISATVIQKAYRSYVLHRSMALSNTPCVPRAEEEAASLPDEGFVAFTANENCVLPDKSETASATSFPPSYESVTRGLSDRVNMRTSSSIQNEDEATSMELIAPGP
T2 sequence (Q14524 whole entry): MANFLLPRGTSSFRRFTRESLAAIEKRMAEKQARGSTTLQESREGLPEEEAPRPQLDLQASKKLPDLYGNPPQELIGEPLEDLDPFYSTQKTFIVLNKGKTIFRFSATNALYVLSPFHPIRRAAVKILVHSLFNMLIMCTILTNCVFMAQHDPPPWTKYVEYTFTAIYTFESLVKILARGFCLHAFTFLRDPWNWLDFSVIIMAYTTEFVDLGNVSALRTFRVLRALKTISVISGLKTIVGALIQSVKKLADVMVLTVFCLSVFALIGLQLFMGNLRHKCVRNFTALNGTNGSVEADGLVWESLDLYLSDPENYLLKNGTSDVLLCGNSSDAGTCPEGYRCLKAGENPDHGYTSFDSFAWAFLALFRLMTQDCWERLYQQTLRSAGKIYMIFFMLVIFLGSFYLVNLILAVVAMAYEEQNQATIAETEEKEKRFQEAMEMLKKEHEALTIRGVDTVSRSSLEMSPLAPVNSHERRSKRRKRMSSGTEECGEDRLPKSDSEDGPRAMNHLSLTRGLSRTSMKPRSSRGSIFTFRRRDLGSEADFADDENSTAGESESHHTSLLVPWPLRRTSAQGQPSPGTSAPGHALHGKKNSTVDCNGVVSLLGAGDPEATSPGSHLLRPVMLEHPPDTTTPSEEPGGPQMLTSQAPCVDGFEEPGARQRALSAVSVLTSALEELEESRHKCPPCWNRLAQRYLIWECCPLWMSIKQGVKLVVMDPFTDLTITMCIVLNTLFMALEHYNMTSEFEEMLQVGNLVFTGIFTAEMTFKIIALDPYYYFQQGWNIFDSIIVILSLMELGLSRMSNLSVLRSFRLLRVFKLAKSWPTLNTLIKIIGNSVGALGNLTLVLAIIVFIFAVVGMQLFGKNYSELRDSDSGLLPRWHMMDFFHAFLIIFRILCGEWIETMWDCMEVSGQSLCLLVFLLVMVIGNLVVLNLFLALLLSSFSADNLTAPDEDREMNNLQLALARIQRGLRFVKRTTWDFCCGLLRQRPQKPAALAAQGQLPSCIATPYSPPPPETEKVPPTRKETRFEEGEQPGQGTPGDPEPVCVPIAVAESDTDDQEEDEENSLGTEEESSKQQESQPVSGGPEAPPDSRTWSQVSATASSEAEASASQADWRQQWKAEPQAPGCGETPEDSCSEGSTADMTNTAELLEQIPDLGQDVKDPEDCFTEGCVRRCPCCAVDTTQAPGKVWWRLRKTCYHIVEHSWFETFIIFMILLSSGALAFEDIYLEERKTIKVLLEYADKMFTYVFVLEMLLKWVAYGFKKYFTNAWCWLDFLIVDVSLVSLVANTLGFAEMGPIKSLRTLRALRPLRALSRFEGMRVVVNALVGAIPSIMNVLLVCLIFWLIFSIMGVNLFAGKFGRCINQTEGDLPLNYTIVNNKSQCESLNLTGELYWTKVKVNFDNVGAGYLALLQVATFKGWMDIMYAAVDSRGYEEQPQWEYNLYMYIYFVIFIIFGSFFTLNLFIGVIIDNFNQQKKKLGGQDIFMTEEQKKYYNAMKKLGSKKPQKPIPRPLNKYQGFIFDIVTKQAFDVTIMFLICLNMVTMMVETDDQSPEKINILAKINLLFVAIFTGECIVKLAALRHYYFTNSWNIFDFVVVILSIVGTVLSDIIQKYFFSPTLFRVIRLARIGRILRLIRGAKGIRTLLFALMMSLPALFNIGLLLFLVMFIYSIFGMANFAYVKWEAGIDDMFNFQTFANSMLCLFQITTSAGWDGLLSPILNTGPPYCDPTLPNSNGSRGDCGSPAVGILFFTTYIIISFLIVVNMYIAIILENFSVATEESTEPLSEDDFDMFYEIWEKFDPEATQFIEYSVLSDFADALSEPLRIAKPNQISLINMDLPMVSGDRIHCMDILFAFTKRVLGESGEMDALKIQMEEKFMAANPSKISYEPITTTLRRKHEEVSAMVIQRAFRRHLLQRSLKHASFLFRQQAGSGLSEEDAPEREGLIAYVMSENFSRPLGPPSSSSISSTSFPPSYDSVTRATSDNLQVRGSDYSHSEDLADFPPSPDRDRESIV

Structure (SMILES): Cn1nccc1C(=O)Nc1ccc(-c2ccccc2Cl)c(N)n1 [Example 1, N-[6-Amino-5-(2-chlorophenyl)pyridin-2-yl]-1-methyl-1H-pyrazole-5-carboxamide]
- IC50 [1]: 5800 nM
- IC50 [2, 4]: > 32 µM
- IC50 [3]: 24 µM

Structure (SMILES): Cc1nocc1C(=O)Nc1ccc(-c2ccccc2C(F)(F)F)c(N)n1 [Example 2, N-{6-Amino-5-[2-(trifluoromethyl)phenyl]pyridin-2-yl}-3-methylisoxazole-4-carboxamide]
- IC50 [1]: 1700 nM
- IC50 [2, 4]: 30 µM
- IC50 [3]: > 32 µM

Structure (SMILES): Cn1nccc1C(=O)Nc1ccc(-c2cc(Cl)ccc2Cl)c(N)n1 [Example 3, N-[6-Amino-5-(2,5-dichlorophenyl)pyridin-2-yl]-1-methyl-1H-pyrazole-5-carboxamide]
- IC50 [1]: 900 nM
- IC50 [2, 4]: 11 µM
- IC50 [3]: 15 µM

Structure (SMILES): COc1ccc(Cl)c(-c2ccc(NC(=O)c3ccnn3C)nc2N)c1 [Example 5, N-[6-Amino-5-(2-chloro-5-methoxyphenyl)pyridin-2-yl]-1-methyl-1H-pyrazole-5-carboxamide]
- IC50 [1]: 900 nM
- IC50 [2, 4]: > 32 µM
- IC50 [3]: > 32 µM

Structure (SMILES): Cn1nccc1C(=O)Nc1ccc(-c2cc(F)ccc2Cl)c(N)n1 [Example 6, N-[6-Amino-5-(2-chloro-5-fluorophenyl)pyridin-2-yl]-1-methyl-1H-pyrazole-5-carboxamide]
- IC50 [1]: 1100 nM
- IC50 [2, 4]: 23 µM
- IC50 [3]: 13 µM

Structure (SMILES): COc1cc(Cl)c(Cl)c(-c2ccc(NC(=O)c3ccnn3C)nc2N)c1 [Example 7, N-[6-Amino-5-(2,3-dichloro-5-methoxyphenyl)pyridin-2-yl]-1-methyl-1H-pyrazole-5-carboxamide]
- IC50 [1]: 630 nM
- IC50 [2, 4]: 9.2 µM
- IC50 [3]: 6.3 µM

Structure (SMILES): COc1cc(Cl)cc(-c2ccc(NC(=O)c3ccnn3C)nc2N)c1Cl [Example 8, N-[6-Amino-5-(2,5-dichloro-3-methoxyphenyl)pyridin-2-yl]-1-methyl-1H-pyrazole-5-carboxamide]
- IC50 [1]: 1600 nM
- IC50 [2, 4]: 7.6 µM
- IC50 [3]: 20 µM

Structure (SMILES): Cn1nccc1C(=O)Nc1ccc(-c2cccc(Cl)c2Cl)c(N)n1 [Example 9, N-[6-Amino-5-(2,3-dichlorophenyl)pyridin-2-yl]-1-methyl-1H-pyrazole-5-carboxamide]
- IC50 [1]: 4200 nM
- IC50 [2, 4]: > 32 µM
- IC50 [3]: 27 µM

Structure (SMILES): Cn1nccc1C(=O)Nc1ccc(-c2ccc(F)cc2Cl)c(N)n1 [Example 10, N-[6-Amino-5-(2-chloro-4-fluorophenyl)pyridin-2-yl]-1-methyl-1H-pyrazole-5-carboxamide]
- IC50 [1]: 25000 nM
- IC50 [2, 4]: > 32 µM
- IC50 [3]: > 32 µM

Structure (SMILES): Cn1nccc1C(=O)Nc1ccc(-c2ccccc2OC(F)(F)F)c(N)n1 [Example 11, N-{6-Amino-5-[2-(trifluoromethoxy)pheny]pyridin-2-yl}-1-methyl-1H-pyrazole-5-carboxamide]
- IC50 [1]: 2400 nM
- IC50 ([2]; veratridine 50 μM opener, average of replicates, read-out: TTX-S IC50): 11 µM
- IC50 [3]: 18 µM

Structure (SMILES): Cn1nccc1C(=O)Nc1ccc(-c2cc(F)ccc2C(F)(F)F)c(N)n1 [Example 12, N-{6-Amino-5-[5-fluoro-2-(trifluoromethyl)phenyl]pyridin-2-yl}-1-methyl-1H-pyrazole-5-carboxamide]
- IC50 [1]: 3000 nM
- IC50 [2, 4]: > 32 µM
- IC50 [3]: > 32 µM

Structure (SMILES): Cn1nccc1C(=O)Nc1ccc(-c2cccc(F)c2Cl)c(N)n1 [Example 13, N-[6-Amino-5-(2-chloro-3-fluorophenyl)pyridin-2-yl]-1-methyl-1H-pyrazole-5-carboxamide]
- IC50 [1]: 8800 nM
- IC50 [2, 4]: > 32 µM
- IC50 [3]: > 32 µM

Structure (SMILES): Cn1nccc1C(=O)Nc1ccc(-c2ccccc2C(F)(F)F)c(N)n1 [Example 14, N-{6-Amino-5-[2-(trifluoromethyl)phenyl]pyridin-2-yl}-1-methyl-1H-pyrazole-5-carboxamide]
- IC50 [1]: 8400 nM
- IC50 [2, 4]: > 32 µM
- IC50 [3]: > 32 µM

Structure (SMILES): Cn1nccc1C(=O)Nc1ccc(-c2ccc(Cl)cc2Cl)c(N)n1 [Example 15, N-[6-Amino-5-(2,4-dichlorophenyl)pyridin-2-yl]-1-methyl-1H-pyrazole-5-carboxamide]
- IC50 [1]: 10000 nM
- IC50 [2, 4]: 21 µM
- IC50 [3]: 13 µM

Structure (SMILES): Cn1nccc1C(=O)Nc1ccc(-c2cc(Cl)ccc2OC(F)(F)F)c(N)n1 [Example 16, N-{6-Amino-5-[5-chloro-2-(trifluoromethoxy)phenyl]pyridin-2-yl}-1-methyl-1H-pyrazole-5-carboxamide]
- IC50 [1]: 1900 nM
- IC50 [2, 4]: 9.6 µM
- IC50 [3]: 11 µM

Structure (SMILES): Cn1nccc1C(=O)Nc1ccc(-c2cc(OC(F)(F)F)ccc2F)c(N)n1 [Example 17, N-{6-Amino-5-[2-fluoro-5-(trifluoromethoxy)phenyl]pyridin-2-yl}-1-methyl-1H-pyrazole-5-carboxamide]
- IC50 [1]: 3400 nM
- IC50 [2, 4]: 7.7 µM
- IC50 [3]: 19 µM

Structure (SMILES): Cn1nccc1C(=O)Nc1ccc(-c2cc(OC(F)(F)F)ccc2Cl)c(N)n1 [Example 18, N-{6-Amino-5-[2-chloro-5-(trifluoromethoxy)phenyl]pyridin-2-yl}-1-methyl-1H-pyrazole-5-carboxamide]
- IC50 [1]: 1600 nM
- IC50 [2, 4]: 1.8 µM
- IC50 [3]: 8.5 µM

Structure (SMILES): Cn1nccc1C(=O)Nc1ccc(-c2ccccc2OC(F)F)c(N)n1 [Example 19, N-{6-Amino-5-[2-(difluoromethoxy)phenyl]pyridin-2-yl}-1-methyl-1H-pyrazole-5-carboxamide]
- IC50 [1]: 14000 nM
- IC50 [2, 4]: 25 µM
- IC50 [3]: > 32 µM
